We go through one substance from US4652549A, “Cardiac anti-hypertrophic agents” (Merck & Co., Inc., priority 1985, dated 1987).

In this test the test system is cardiac hypertrophy. The test is described as follows: 7-day continuous infusion, reversing cardiac hypertrophy (heart weight). It is filed as in vivo. Conditions: 30 pmole per kg per minute. The source says: Heart Weight (grams H2 O per 100 grams tissue)

Regarding “Arg-Arg-Ser-Ser-Cys-Phe-Gly-Gly-Arg-Ile-Asp-Arg-Ile-Gly-Ala-Gln-Ser-Gly-Leu-Gly-Cys-Asn-Ser-Phe-Arg-Tyr (RRSSCFGGRIDRIGAQSGLGCNSFRY; printed: Arg-Arg-Ser-Ser-Cys-Phe-Gly-Gly-Arg-Ile-Asp-Arg-Ile-Gly-Ala-Gln-Ser-Gly-Leu-Gly-Cys-Asn-Ser-Phe-Arg-Tyr) [PEPTIDE OF EXAMPLE 5]”, the “Heart Weight” value by setting is: (NORMAL group, n = 22) 0.45 + 0.02 grams H2 O per 100 grams tissu; (first group (heading not given, presumably hypertrophic animals), n = 23, statistically significant at p less than 0.05) 0.70 + 0.03 grams H2 O per 100 grams tissu.
